The values below come from patent US11524966B1 (Valo Early Discovery, Inc., priority 2017, dated 2022).

Structures are written as SMILES.

In the first assay the target is T1, USP28 (USP28-5(1-1077)-TEV-6*His; LifeSensors) (Homo sapiens, UniProt Q96RU2).
T1 construct: construct USP28 (USP28-5(1-1077)-TEV-6*His; LifeSensors); TEV cleavage site (C); 6xHis (C); purchased LifeSensors
T1 sequence (Q96RU2 1-1077): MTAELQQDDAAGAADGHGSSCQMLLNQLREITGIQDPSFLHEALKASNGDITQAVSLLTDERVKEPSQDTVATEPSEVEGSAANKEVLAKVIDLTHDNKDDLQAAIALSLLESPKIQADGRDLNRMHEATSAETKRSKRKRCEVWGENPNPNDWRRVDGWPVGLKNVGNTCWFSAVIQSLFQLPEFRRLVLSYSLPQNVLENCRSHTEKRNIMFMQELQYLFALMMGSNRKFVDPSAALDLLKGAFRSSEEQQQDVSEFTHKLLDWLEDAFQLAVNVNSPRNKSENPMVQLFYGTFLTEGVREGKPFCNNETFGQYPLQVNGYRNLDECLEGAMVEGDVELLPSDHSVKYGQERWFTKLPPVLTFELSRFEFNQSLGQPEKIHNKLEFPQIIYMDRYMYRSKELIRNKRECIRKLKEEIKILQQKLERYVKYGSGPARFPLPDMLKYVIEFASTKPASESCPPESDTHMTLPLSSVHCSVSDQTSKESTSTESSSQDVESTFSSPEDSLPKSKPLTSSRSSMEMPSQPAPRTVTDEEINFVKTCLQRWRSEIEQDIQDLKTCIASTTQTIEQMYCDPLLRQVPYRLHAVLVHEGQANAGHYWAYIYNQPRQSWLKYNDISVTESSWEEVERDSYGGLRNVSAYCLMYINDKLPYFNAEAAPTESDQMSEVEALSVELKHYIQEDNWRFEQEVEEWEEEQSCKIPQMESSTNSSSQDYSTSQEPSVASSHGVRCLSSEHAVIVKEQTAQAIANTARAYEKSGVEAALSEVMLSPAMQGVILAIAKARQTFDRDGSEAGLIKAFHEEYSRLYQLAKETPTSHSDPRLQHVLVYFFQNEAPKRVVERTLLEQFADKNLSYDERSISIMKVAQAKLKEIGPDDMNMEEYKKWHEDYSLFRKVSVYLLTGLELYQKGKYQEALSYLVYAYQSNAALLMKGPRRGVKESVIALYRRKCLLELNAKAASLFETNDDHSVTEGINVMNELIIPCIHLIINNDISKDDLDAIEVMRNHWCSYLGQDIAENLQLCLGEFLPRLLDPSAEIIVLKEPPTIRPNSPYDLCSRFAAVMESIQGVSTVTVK
The experiment in a line: Ubiquitin-Rhodamine 110 Assay for USP28 Activity, Example A-1(b). The format is biochemical. The conditions noted are these: Ubiquitin-Rhodamine 110 assay, Example A-1(b). The procedure, abridged:
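Single-point screening used 10 μM compound with 90 min room-temperature incubation; follow-up dose-responses (25 μM top, 3-fold) used 75 pM USP28 1-1077 construct, 30 min compound preincubation, 25 nM Ub-Rh110, 20 min reaction, citric acid quench. Rh110 fluorescence normalised to no-enzyme and DMSO controls; IC50 from 4-parameter logistic fit.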
With `CCn1ccc2cc(C(=O)N[C@@H]3CCc4cc(N5CC6CCC(C5)N6)ccc4C3)cnc21` (single isomer, unassigned) [Example 11-10], the “USP28 A-1(b) IC50 range” value was “++ (0.2-2 μM)”.
Turning to `Cc1ccc2c(N)c(C(=O)N[C@H]3COc4cc(O[C@H]5COC6(CNC6)C5)ccc4C3)sc2n1` (single isomer, unassigned) [Example 9-2], the “USP28 A-1(b) IC50 range” value is “+++ (0.05-0.2 μM)”.
Same read-out and setting: to `Cc1ccc2c(N)c(C(=O)N[C@H]3CCc4cc(N5CCN[C@H](CO)C5)ccc4C3)sc2n1` (single isomer, unassigned) [Example 7-8] belongs “+ (>2 μM)”; to `Cc1cc(C)c2c(N)c(C(=O)N[C@H]3COc4cc(N5CCNCC5)cc(F)c4C3)sc2n1` [Example 10-9, (R)-3-amino-N-(5-fluoro-7-(piperazin-1-yl)chroman-3-yl)-4,6-dimethylthieno[2,3-b]pyridine-2-carboxamide], “+++ (0.05-0.2 μM)”; to `Cc1cnc2c(N)c(C(=O)N[C@H]3CCc4cc(N5CCNC[C@H](O)C5)ccc4C3)sc2n1` (single isomer, unassigned) [Example 7-6], “++ (0.2-2 μM)”.
The same measure, in the same setting: to `CCn1ccc2cc(C(=O)N[C@H]3CCc4cc(N5CC6CCC(C5)N6)ccc4C3)cnc21` (single isomer, unassigned) [Example 11-9] belongs “+ (>2 μM)”; to `Cc1ccc2c(N)c(C(=O)N[C@H]3COc4cc(O[C@@H]5COC6(CNC6)C5)ccc4C3)sc2n1` (single isomer, unassigned) [Example 9-1], “+++ (0.05-0.2 μM)”; to `CCn1ccc2cc(C(=O)N[C@@H]3CCc4cc(N5CC6CCC(C5)N6)ccc4C3)nnc21` (single isomer, unassigned) [Example 11-23], “+ (>2 μM)”.
In the case of `Cc1nc2sc(C(=O)N[C@@H]3CCc4cc(N5CC6CCC(C5)N6)ccc4C3)c(N)c2cc1F` (single isomer, unassigned) [Example 11-4], the “USP28 A-1(b) IC50 range” value is on record as “+++ (0.05-0.2 μM)”.
Regarding `Cc1ccc2c(N)c(C(=O)N[C@@H]3COc4cc(N5CCNCC5)ccc4[C@@H]3C)sc2n1` (single isomer, unassigned) [Example 11-18], the “USP28 A-1(b) IC50 range” value was “+ (>2 μM)”.
`Cc1ccc2c(N)c(C(=O)N[C@@H]3CCc4cc(N5CCN[C@H](CO)C5)ccc4C3)sc2n1` (single isomer, unassigned) [Example 7-10]: the “USP28 A-1(b) IC50 range” value is “++ (0.2-2 μM)”.
The same measure, in the same setting: to `Cc1cnc2c(N)c(C(=O)N[C@@H]3CCc4cc(N5CC6CCC(C5)N6)cc(F)c4C3)sc2n1` (single isomer, unassigned) [Example 11-14] belongs “+++ (0.05-0.2 μM)”; to `Cc1cnc2c(N)c(C(=O)N[C@H]3COc4cc(N5CC6CNCC(C5)O6)cc(F)c4C3)sc2n1` [Example 10-12, N-((3R)-7-(9-oxa-3,7-diazabicyclo[3.3.1]nonan-3-yl)-5-fluorochroman-3-yl)-7-amino-3-methylthieno[2,3-b]pyrazine-6-carboxamide], “++++ (0.001-0.05 μM)”.
Turning to `Cc1cnc2c(N)c(C(=O)N[C@@H]3CCc4cc(N5CCNC[C@H](O)C5)ccc4C3)sc2n1` (single isomer, unassigned) [Example 7-7], the “USP28 A-1(b) IC50 range” value is recorded as “+ (>2 μM)”.
With `Cc1cc(C)c2c(N)c(C(=O)N[C@H]3COc4cc(N5CC6CNCC(C5)O6)cc(F)c4C3)sc2n1` [Example 10-13, N-((3R)-7-(9-oxa-3,7-diazabicyclo[3.3.1]nonan-3-yl)-5-fluorochroman-3-yl)-3-amino-4,6-dimethylthieno[2,3-b]pyridine-2-carboxamide], the “USP28 A-1(b) IC50 range” value was “++++ (0.001-0.05 μM)”.
Consider `Cc1cc(C)c2c(N)c(C(=O)N[C@H]3COc4cc(N5CC6CC(C5)N6)cc(F)c4C3)sc2n1` [Example 10-7, N-((3R)-7-(3,6-diazabicyclo[3.1.1]heptan-3-yl)-5-fluorochroman-3-yl)-3-amino-4,6-dimethylthieno[2,3-b]pyridine-2-carboxamide], for which the “USP28 A-1(b) IC50 range” value is recorded as “+++ (0.05-0.2 μM)”.
For the molecule `Cc1ccc2c(N)c(C(=O)N[C@H]3COc4cc(N5CCNCC5)cc(F)c4C3)sc2n1` [Example 10-1, (R)-3-amino-N-(5-fluoro-7-(piperazin-1-yl)chroman-3-yl)-6-methylthieno[2,3-b]pyridine-2-carboxamide], the “USP28 A-1(b) IC50 range” value is “+++ (0.05-0.2 μM)”.
Regarding `Cc1cnc2c(N)c(C(=O)N[C@H]3CCc4cc(N5CCNC[C@@H](O)C5)ccc4C3)sc2n1` (single isomer, unassigned) [Example 7-4], the “USP28 A-1(b) IC50 range” value is given as “++ (0.2-2 μM)”.
On the same count and under the same terms, to `Cc1cnc2c(N)c(C(=O)N[C@H]3COc4cc(N5CC6CC(C5)N6)cc(F)c4C3)sc2n1` [Example 10-8, N-((3R)-7-(3,6-diazabicyclo[3.1.1]heptan-3-yl)-5-fluorochroman-3-yl)-7-amino-3-methylthieno[2,3-b]pyrazine-6-carboxamide] belongs “+++ (0.05-0.2 μM)”.
For `COc1ccc2c(N)c(C(=O)N[C@@H]3CCc4cc(N5CC6CCC(C5)N6)ccc4C3)sc2n1` (single isomer, unassigned) [Example 11-6], the “USP28 A-1(b) IC50 range” value was “+ (>2 μM)”.
As to `Cc1ccc2c(N)c(C(=O)N[C@H]3CCc4cc(N5CCNCC5)cc(F)c4C3)sc2n1` (single isomer, unassigned) [Example 11-11], the “USP28 A-1(b) IC50 range” value is on record as “+ (>2 μM)”.

The same assay, now with this note: Ubiquitin-Rhodamine 110 assay, format Example A-1(b).
For `Cc1ccc2c(N)c(C(=O)N[C@@H]3CCc4c(F)c(N5CCNCC5)cc(F)c4C3)sc2n1` (single isomer, unassigned) [Example 22-2], the “USP28 A-1(b) IC50 range” value was “+++ (0.05-0.2 μM)”.
With `Cc1nc2sc(C(=O)N[C@H]3CCc4cc(N5CC6CCC(C5)N6)ccc4C3)c(N)c2s1` (single isomer, unassigned) [Example 12-1], the “USP28 A-1(b) IC50 range” value is “+ (>2 μM)”.
`Cc1ccc2c(N)c(C(=O)N[C@H]3COc4c(F)c(N5CC6CCC(C5)N6)cc(F)c4C3)sc2n1` (single isomer, unassigned) [Example 13-1]: the “USP28 A-1(b) IC50 range” value is reported as “++++ (0.001-0.05 μM)”.
Consider `Cc1ccc2c(N)c(C(=O)N[C@H]3COc4cc(N5CCNCC5)ncc4C3)sc2n1` [Example 16, (R)-3-Amino-6-methyl-N-(7-(piperazin-1-yl)-3,4-dihydro-2H-pyrano[3,2-c]pyridin-3-yl)thieno[2,3-b]pyridine-2-carboxamide], for which the “USP28 A-1(b) IC50 range” value was “++ (0.2-2 μM)”.
On to `Cc1ccc2c(N)c(C(=O)N[C@H]3CCc4c(F)c(N5CCNCC5)cc(F)c4C3)sc2n1` (single isomer, unassigned) [Example 22-1], for which the “USP28 A-1(b) IC50 range” value is given as “++ (0.2-2 μM)”.
In the case of `Cc1ccc2c(N)c(C(=O)N[C@@H]3COc4c(F)c(N5CC6CCC(C5)N6)cc(F)c4C3)sc2n1` (single isomer, unassigned) [Example 13-2], the “USP28 A-1(b) IC50 range” value is “+ (>2 μM)”.
As for `Cc1ccc2c(N)c(C(=O)N[C@H]3COc4cc(N5CCNCC5)c(Cl)cc4C3)sc2n1` [Example 13-5, (R)-3-amino-N-(6-chloro-7-(piperazin-1-yl)chroman-3-yl)-6-methylthieno[2,3-b]pyridine-2-carboxamide], the “USP28 A-1(b) IC50 range” value was “+ (>2 μM)”.
With `Cc1ccc2c(N)c(C(=O)N[C@@H]3CCc4cc(N5CCNCC5)c(F)cc4C3)sc2n1` (single isomer, unassigned) [Example 21-7], the “USP28 A-1(b) IC50 range” value was “+++ (0.05-0.2 μM)”.
Same read-out and setting: to `Cc1ccc2c(N)c(C(=O)N[C@H]3CCc4cc(N5CCNCC5)cnc4C3)sc2n1` (single isomer, unassigned) [Example 15-2] belongs “+ (>2 μM)”; to `Cc1ccc2c(N)c(C(=O)N[C@@H]3CCc4c(ccc(N5CCNCC5)c4F)C3)sc2n1` (single isomer, unassigned) [Example 21-5], “++++ (0.001-0.05 μM)”; to `Cc1ccc2c(N)c(C(=O)N[C@H]3CCc4cc(N5CC6CCC(C5)N6)c(F)cc4C3)sc2n1` (single isomer, unassigned) [Example 21-4], “++ (0.2-2 μM)”.
